According to article PMC4357444, “Accumulation of Squalene in a Microalga Chlamydomonas reinhardtii by Genetic Modification of Squalene Synthase and Squalene Epoxidase Genes” (PLoS ONE, 2015):

Target: T1, CrSQS (Chlamydomonas reinhardtii, UniProt A0A2K3DXC5)
T1 construct: gene CHLRE_03g175250v5; Met-1 to Asp-397, C-terminal 64 residues (transmembrane region) removed; C-terminal 6xHis (pET-21b), E. coli BL21(DE3), TALON purified, 46 kDa
Experiment: radiolabel TLC assay of squalene formation
Format: biochemical
Details: 25 uM (1-14C) FPP, 2.5 mM NADPH, 5 mM MgCl2 or 2 mM MnCl2, pH 7.4, 30 °C; labelled compound; 2.5 mM NADPH (with glucose-6-phosphate dehydrogenase regeneration) against no NADPH

T1 sequence (A0A2K3DXC5 entry or part of it): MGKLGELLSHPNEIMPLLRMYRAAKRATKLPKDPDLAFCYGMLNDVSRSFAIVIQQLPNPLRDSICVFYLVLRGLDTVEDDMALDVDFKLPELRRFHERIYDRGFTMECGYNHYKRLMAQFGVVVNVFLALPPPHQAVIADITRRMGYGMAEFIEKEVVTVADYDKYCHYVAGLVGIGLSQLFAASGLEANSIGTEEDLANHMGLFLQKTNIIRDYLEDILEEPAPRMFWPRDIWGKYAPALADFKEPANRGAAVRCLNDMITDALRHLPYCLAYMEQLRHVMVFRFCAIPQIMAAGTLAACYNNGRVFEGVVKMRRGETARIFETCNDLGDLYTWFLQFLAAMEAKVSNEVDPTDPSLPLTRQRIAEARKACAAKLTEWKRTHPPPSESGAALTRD

SMILES: NC(=O)C1=CN([C@@H]2O[C@H](COP(=O)(O)OP(=O)(O)OC[C@H]3O[C@@H](n4cnc5c(N)ncnc54)[C@H](OP(=O)(O)O)[C@@H]3O)[C@@H](O)[C@H]2O)C=CC1 [NADPH]
- radiolabel TLC assay of squalene formation: When NADPH was removed, radiolabeled squalene was not detected in any sample
